Earlier results on eleven compounds are cited in US6528013B1, “Uncomplexed cyclodextrin compositions for odor and wrinkle control” (The Procter & Gamble Company, priority 1998, dated 2003).

As for `OCCOc1ccccc1` [2-phenoxyethanol], the solubility in water result is listed as “about 2.67%”.
Regarding `OCCc1ccccc1` [2-phenylethanol], the solubility in water result is reported as “about 2%”.
Consider `O=[N+]([O-])C1(Br)COCOC1` [Bronidox L, 5-bromo-5-nitro-1,3-dioxane], for which the solubility in water result is “about 0.46%”.
Regarding `O=[N+]([O-])C(Br)(CO)CO` [Bronopol, 2-bromo-2-nitropropane-1,3-diol], the solubility in water result was “about 25%”.
Consider `CC1(C)C(=O)N(CO)C(=O)N1CO` [DMDM hydantoin, 1,3-bis(hydroxymethyl)-5,5-dimethyl-2,4-imidazolidinedione], for which the solubility in water result was “more than 50%”.
Regarding `ClC=CC[N+]12CN3CN(CN(C3)C1)C2.[Cl-]` [Dowicil 200, 1-(3-Chlorallyl)-3,5,7-triaza-1-azoniaadamantane chloride], the “solubility in water” value is given as “freely soluble in water”.
On to `OCc1ccccc1` [benzyl alcohol], for which the solubility in water entry is reported as “about 4%”.
Turning to `[H]/N=C(\N/C(=N/[H])NCCCCCCNC(=N)NC(=N)Nc1ccc(Cl)cc1)Nc1ccc(Cl)cc1` [chlorhexidine diacetate, 1,1′-hexamethylene bis(5-(p-chlorophenyl)biguanide), reference compound], the solubility in water result is reported as “about 1.8%”.
In the case of `[H]/N=C(\N/C(=N/[H])NCCCCCCNC(=N)NC(=N)Nc1ccc(Cl)cc1)Nc1ccc(Cl)cc1` [chlorhexidine digluconate, 1,1′-hexamethylene bis(5-(p-chlorophenyl)biguanide), reference compound], the solubility in water result is on record as “about 70%”.
Consider `CC(C)(O)C(Cl)(Cl)Cl` [chlorobutanol, 1,1,1-Trichloro-2-methylpropan-2-ol, reference compound], for which the solubility in water result is given as “about 0.8%”.
On to `[Na+].[O-][n+]1ccccc1[S-]` [sodium pyrithione], for which the solubility in water result is “about 50%”.
